In one experiment the target is HIS-TGFβR2 WT (Homo sapiens, UniProt P37173). Description: HTRF probe-displacement assay with HIS-TGFβR2 WT. The note with it: 1 nM HIS-TGFβR2 WT, labeled probe at Kd, 1 hour at room temperature. Format: binding. The method, then:
(§1) The reaction is incubated for 1 hour at room temperature and the HTRF signal was measured on an Envision plate reader (Ex: 340 nm; Em: 520 nm/495 nm). Inhibition data were calculated by comparison to no enzyme control reactions for 100% inhibition and vehicle-only reactions for 0% inhibition. The final concentration of reagents in the assay are 1 nM HIS-TGFβR1 T204D or HIS-TGFβR2 WT, 0.2 nM anti-HIS detection antibody, labeled small molecule probe (at Kd) and 0.5% DMSO. Dose response curves were generated to determine the concentration required inhibiting 50% of kinase activity (IC50). Compounds were dissolved at 10 mM in dimethylsulfoxide (DMSO) and evaluated at eleven concentrations. IC50 values were derived by non-linear regression analysis.
Chain of HIS-TGFβR2 WT (P37173 23-567): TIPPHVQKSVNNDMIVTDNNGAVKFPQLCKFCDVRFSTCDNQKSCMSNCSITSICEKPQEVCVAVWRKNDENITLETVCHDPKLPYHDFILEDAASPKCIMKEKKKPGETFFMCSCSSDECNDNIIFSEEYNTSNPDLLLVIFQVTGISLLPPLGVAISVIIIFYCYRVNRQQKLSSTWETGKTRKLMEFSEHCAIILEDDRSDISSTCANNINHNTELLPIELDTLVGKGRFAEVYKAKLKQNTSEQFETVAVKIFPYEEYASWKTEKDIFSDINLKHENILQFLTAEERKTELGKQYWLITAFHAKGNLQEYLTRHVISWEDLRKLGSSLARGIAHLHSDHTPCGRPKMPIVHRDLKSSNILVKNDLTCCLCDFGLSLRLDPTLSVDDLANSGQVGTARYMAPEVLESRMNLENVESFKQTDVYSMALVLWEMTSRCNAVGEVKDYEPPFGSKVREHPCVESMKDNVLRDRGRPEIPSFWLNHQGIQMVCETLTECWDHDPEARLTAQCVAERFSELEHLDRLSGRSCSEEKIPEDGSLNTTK
`Clc1ccc(-c2n[nH]cc2-c2ccc3nccn3c2)cc1` [Example 45, 6-(3-(4-chlorophenyl)-1H-pyrazol-4-yl)imidazo[1,2-a]pyridine] gave a half-inhibitory concentration (IC50) of 4.23 µM.

On to `Cc1cccc(-c2n[nH]cc2-c2ccc3ncc(C(N)=O)n3n2)n1` [Example 21, 6-(3-(6-methylpyridin-2-yl)-1H-pyrazol-4-yl)imidazo[1,2-b]pyridazine-3-carboxamide], for which the IC50 was determined as 0.205 µM.

`CCc1[nH]nc(-c2cccc(C)n2)c1-c1ccc2nccn2c1` [Example 126, 6-(5-ethyl-3-(6-methylpyridin-2-yl)-1H-pyrazol-4-yl)imidazo[1,2-a]pyridine] registered a half-inhibitory concentration (IC50) of 3.15 µM.

As for `Cc1cccc(-c2nn(C)c(C(C)C)c2-c2ccc3ncc(C#N)n3c2)n1` [Example 116, 6-(5-isopropyl-1-methyl-3-(6-methylpyridin-2-yl)-1H-pyrazol-4-yl)imidazo[1,2-a]pyridine-3-carbonitrile], the IC50 was 5.77 µM.

Regarding `Fc1ccc(-c2n[nH]cc2-c2cc(F)c3nccn3c2)cc1` [Example 30, 8-fluoro-6-(3-(4-fluorophenyl)-1H-pyrazol-4-yl)imidazo[1,2-a]pyridine], the IC50 came out at 10.3 µM.

Molecule `NC(=O)c1cnc2ccc(-c3cn(CC(F)F)nc3-c3ccc(F)c(Cl)c3)cn12` [Example 62, 6-(3-(3-chloro-4-fluorophenyl)-1-(2,2-difluoroethyl)-1H-pyrazol-4-yl)imidazo[1,2-a]pyridine-3-carboxamide] registered an IC50 of 0.518 µM.

Turning to `NC(=O)c1cnc2ccc(-c3c(-c4ccc(F)cc4)n[nH]c3C3CC3)cn12` [Example 85, 6-(5-cyclopropyl-3-(4-fluorophenyl)-1H-pyrazol-4-yl)imidazo[1,2-a]pyridine-3-carboxamide], the IC50 is 0.143 µM.

`Cc1nc(-c2nn(C)cc2-c2ccc3ncc(C(N)=O)n3c2)ccc1F` [Example 12, 6-(3-(5-fluoro-6-methylpyridin-2-yl)-1-methyl-1H-pyrazol-4-yl)imidazo[1,2-a]pyridine-3-carboxamide] yielded an IC50 of 0.396 µM.

With `N#Cc1cnc2ccc(-c3c[nH]nc3-c3cccc(F)n3)cn12` [Example 6, 6-(3-(6-fluoropyridin-2-yl)-1H-pyrazol-4-yl)imidazo[1,2-a]pyridine-3-carbonitrile], the IC50 stood at 0.259 µM.

For `NC(=O)c1cnc2ccc(-c3c[nH]nc3-c3cccc(C(F)F)n3)cn12` [Example 5, 6-(3-(6-(difluoromethyl)pyridin-2-yl)-1H-pyrazol-4-yl)imidazo[1,2-a]pyridine-3-carboxamide], the IC50 stood at 0.193 µM.

As for `Cc1cccc(-c2n[nH]cc2-c2ccc3[nH]ncc3c2)n1` [Example 18, 5-(3-(6-methylpyridin-2-yl)-1H-pyrazol-4-yl)-1H-indazole], the IC50 came to 0.752 µM.

As for `Cc1cccc(-c2n[nH]cc2-c2ccc3nccn3n2)n1` [Example 19, 6-(3-(6-methylpyridin-2-yl)-1H-pyrazol-4-yl)imidazo[1,2-b]pyridazine], the IC50 amounted to 0.277 µM.

Molecule `Cc1cc(-c2n[nH]cc2-c2ccc3ncc(C(N)=O)n3c2)ccc1F` [Example 50, 6-(3-(4-fluoro-3-methylphenyl)-1H-pyrazol-4-yl)imidazo[1,2-a]pyridine-3-carboxamide] displayed an IC50 of 0.368 µM.

In the next experiment the target is T1, HIS-TGFβR1 T204D (Homo sapiens, UniProt P36897, T204D).
T1 sequence (P36897 34-503 T204D): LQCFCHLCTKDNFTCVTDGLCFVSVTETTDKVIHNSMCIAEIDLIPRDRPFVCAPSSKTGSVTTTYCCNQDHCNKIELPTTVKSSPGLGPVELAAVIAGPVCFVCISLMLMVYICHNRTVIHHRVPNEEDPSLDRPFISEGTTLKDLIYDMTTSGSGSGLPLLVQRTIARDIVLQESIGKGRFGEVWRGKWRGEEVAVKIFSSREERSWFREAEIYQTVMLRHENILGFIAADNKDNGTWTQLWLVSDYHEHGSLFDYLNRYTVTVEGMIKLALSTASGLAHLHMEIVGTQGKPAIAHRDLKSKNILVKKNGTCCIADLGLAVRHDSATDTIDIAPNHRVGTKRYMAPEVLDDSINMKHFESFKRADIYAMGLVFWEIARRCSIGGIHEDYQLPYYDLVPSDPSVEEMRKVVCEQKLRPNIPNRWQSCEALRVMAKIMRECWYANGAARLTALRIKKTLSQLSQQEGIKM
Description: HTRF probe-displacement assay with HIS-TGFβR1 T204D. It counts as binding. The note with it: 1 nM HIS-TGFβR1 T204D, labeled probe at Kd, 1 hour at room temperature. The method, then:
as §1
(TR-FRET usually uses a lanthanide donor and a delayed reading to cut background.)
`Clc1ccc(-c2n[nH]cc2-c2ccc3nccn3c2)cc1` [Example 45, 6-(3-(4-chlorophenyl)-1H-pyrazol-4-yl)imidazo[1,2-a]pyridine] displayed an IC50 of 0.112 µM.

In turn, `CCc1[nH]nc(-c2cccc(C)n2)c1-c1ccc2nccn2c1` [Example 126, 6-(5-ethyl-3-(6-methylpyridin-2-yl)-1H-pyrazol-4-yl)imidazo[1,2-a]pyridine] showed an IC50 of 0.001 µM.

Molecule `Cc1cccc(-c2nn(C)c(C(C)C)c2-c2ccc3ncc(C#N)n3c2)n1` [Example 116, 6-(5-isopropyl-1-methyl-3-(6-methylpyridin-2-yl)-1H-pyrazol-4-yl)imidazo[1,2-a]pyridine-3-carbonitrile] had a half-maximal inhibitory concentration (IC50) of 0.001 µM.

In turn, `Fc1ccc(-c2n[nH]cc2-c2cc(F)c3nccn3c2)cc1` [Example 30, 8-fluoro-6-(3-(4-fluorophenyl)-1H-pyrazol-4-yl)imidazo[1,2-a]pyridine] came in with an IC50 of 0.591 µM.

On to `NC(=O)c1cnc2ccc(-c3cn(CC(F)F)nc3-c3cccc(C(F)(F)F)n3)cn12` [Example 8, 6-(1-(2,2-difluoroethyl)-3-(6-(trifluoromethyl)pyridin-2-yl)-1H-pyrazol-4-yl)imidazo[1,2-a]pyridine-3-carboxamide], for which the concentration for half-maximal inhibition (IC50) came out at 0.006 µM.

`N#Cc1cnc2ccc(-c3cn(CC(F)F)nc3-c3cccc(C(F)(F)F)n3)cn12` [Example 7, 6-(1-(2,2-difluoroethyl)-3-(6-(trifluoromethyl)pyridin-2-yl)-1H-pyrazol-4-yl)imidazo[1,2-a]pyridine-3-carbonitrile] yielded an IC50 of 0.008 µM.

Turning to `Fc1ccc(-c2n[nH]c(C(F)(F)F)c2-c2ccc3nccn3c2)cc1` [Example 107, 6-(3-(4-fluorophenyl)-5-(trifluoromethyl)-1H-pyrazol-4-yl)imidazo[1,2-a]pyridine], the IC50 was 0.147 µM.

`CC(C)c1[nH]nc(-c2ccc(Cl)cc2)c1-c1ccc2nccn2c1` [Example 77, 6-(3-(4-chlorophenyl)-5-isopropyl-1H-pyrazol-4-yl)imidazo[1,2-a]pyridine] registered an IC50 of 0.144 µM.

For `N#Cc1cnc2ccc(-c3c[nH]nc3-c3cccc(C(F)(F)F)n3)cn12` [Example 1, 6-(3-(6-(trifluoromethyl)pyridin-2-yl)-1H-pyrazol-4-yl)imidazo[1,2-a]pyridine-3-carbonitrile], the IC50 turned out to be 0.001 µM.

For `Cn1nc(C2CC2)c(-c2ccc3ncc(C(N)=O)n3c2)c1-c1ccc(F)cc1` [Example 95, 6-(3-cyclopropyl-5-(4-fluorophenyl)-1-methyl-1H-pyrazol-4-yl)imidazo[1,2-a]pyridine-3-carboxamide], the IC50 came to 0.058 µM.

Regarding `N#Cc1cnc2ccc(-c3c(-c4ccc(F)cc4)n[nH]c3C(N)=O)cn12` [Example 130, 4-(3-cyanoimidazo[1,2-a]pyridin-6-yl)-3-(4-fluorophenyl)-1H-pyrazole-5-carboxamide], the IC50 is 0.145 µM.

In turn, `OCc1cnc2ccc(-c3c(-c4ccc(F)cc4)n[nH]c3C3CC3)cn12` [Example 90, (6-(5-cyclopropyl-3-(4-fluorophenyl)-1H-pyrazol-4-yl)imidazo[1,2-a]pyridin-3-yl)methanol] came in with an IC50 of 0.004 µM.

The molecule `N#Cc1cnc2ccc(-c3c(-c4ccc(F)cc4)n[nH]c3C(=O)O)cn12` [Example 129] gave an IC50 of 1.76 µM.

For `Cc1cccc(-c2nn(C)cc2-c2ccc3ncc(NC(C)(C)C)n3c2)n1` [Example 53, N-(tert-butyl)-6-(1-methyl-3-(6-methylpyridin-2-yl)-1H-pyrazol-4-yl)imidazo[1,2-a]pyridin-3-amine], the IC50 came to 0.03 µM.

`CC(C)c1nn(C)c(-c2ccc(F)cc2)c1-c1ccc2ncc(C(N)=O)n2c1` [Example 71] gave an IC50 of 0.145 µM.

In the case of `Cc1cc(-c2n[nH]c(C(C)C)c2-c2ccc3nccn3c2)ccc1F` [Example 80, 6-(3-(4-fluoro-3-methylphenyl)-5-isopropyl-1H-pyrazol-4-yl)imidazo[1,2-a]pyridine], the IC50 amounted to 0.001 µM.

Consider `Cn1cc(-c2ccc3ncc(C#N)n3c2)c(-c2cccc(C(F)(F)F)n2)n1` [Example 9, 6-(1-methyl-3-(6-(trifluoromethyl)pyridin-2-yl)-1H-pyrazol-4-yl)imidazo[1,2-a]pyridine-3-carbonitrile], for which the IC50 was 0.024 µM.

As to `Cc1cc(-c2n[nH]c(C3CC3)c2-c2ccc3nccn3c2)ccc1F` [Example 101, 6-(5-cyclopropyl-3-(4-fluoro-3-methylphenyl)-1H-pyrazol-4-yl)imidazo[1,2-a]pyridine], the IC50 was 0.001 µM.

As to `CC(C)c1nn(C)c(-c2ccc(F)cc2)c1-c1ccc2ncc(C(C)(C)O)n2c1` [Example 73, 2-(6-(5-(4-fluorophenyl)-3-isopropyl-1-methyl-1H-pyrazol-4-yl)imidazo[1,2-a]pyridin-3-yl)propan-2-ol], the IC50 turned out to be 9.86 µM.

With `CC(=O)Nc1cnc2ccc(-c3c[nH]nc3-c3ccc(F)cc3)nn12` [Example 58, N-(6-(3-(4-fluorophenyl)-1H-pyrazol-4-yl)imidazo[1,2-b]pyridazin-3-yl)acetamide], the IC50 came out at 0.025 µM.

One may read the IC50 as the point on the concentration scale where inhibition reaches its midpoint. A low value points to higher potency.
